Laboratory results published in patent US5789434A, “Derivatives of substituted 4-biarylbutyric acid as matrix metalloprotease inhibitors” (priority 1995, dated 1998).

What was measured:
MMP-9 = biological target: T1, MMP-9 (Homo sapiens, UniProt P14780); test: Thiopeptilide MMP-9 Inhibition Assay; format: biochemical; details: for IC50: pH 6.5, x (n) = average of n determinations, read-out: MMP-9: Thiopep. IC50; for inhibition at 5 µM: read-out: MMP-9: Thiopep. % inhibition
T1 construct: from tissue; host or cells: human polymorphonuclear leukocytes (PMN) from whole blood (New York Blood Center), PMA-stimulated supernatant
T1 sequence (P14780 107-707 limits assumed): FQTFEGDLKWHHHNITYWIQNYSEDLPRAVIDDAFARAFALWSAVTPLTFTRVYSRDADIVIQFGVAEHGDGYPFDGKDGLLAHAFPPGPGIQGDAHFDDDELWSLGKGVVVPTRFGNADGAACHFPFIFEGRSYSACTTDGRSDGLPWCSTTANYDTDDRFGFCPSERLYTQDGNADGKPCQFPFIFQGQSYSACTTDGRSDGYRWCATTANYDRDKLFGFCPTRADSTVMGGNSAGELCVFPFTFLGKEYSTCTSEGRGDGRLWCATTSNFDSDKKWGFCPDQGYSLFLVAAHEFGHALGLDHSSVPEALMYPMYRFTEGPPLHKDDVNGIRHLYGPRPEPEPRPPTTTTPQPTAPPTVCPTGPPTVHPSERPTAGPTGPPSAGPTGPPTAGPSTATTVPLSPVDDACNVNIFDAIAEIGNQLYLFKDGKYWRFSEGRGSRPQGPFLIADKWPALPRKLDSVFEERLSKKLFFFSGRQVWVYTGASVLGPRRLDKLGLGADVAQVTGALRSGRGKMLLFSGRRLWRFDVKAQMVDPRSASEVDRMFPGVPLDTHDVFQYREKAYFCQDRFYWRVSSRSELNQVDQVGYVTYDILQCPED

MMP-3 = biological target: T2, MMP-3 (Homo sapiens, UniProt P08254); test: Primary Thiopeptilide MMP-3 Inhibition Assay; format: biochemical; details: for IC50: pH 6.5, 13 nM stromelysin, x (n) = average of n determinations, read-out: MMP-3 Thiopep. IC50; for inhibition at 5 µM: read-out: MMP-3 Thiopep. % inhibition
T2 construct: Truncated Prostromelysin-257 was expressed in a soluble form in E.coli; made in house; host or cells: E. coli
T2 sequence (P08254 100-274 limits assumed): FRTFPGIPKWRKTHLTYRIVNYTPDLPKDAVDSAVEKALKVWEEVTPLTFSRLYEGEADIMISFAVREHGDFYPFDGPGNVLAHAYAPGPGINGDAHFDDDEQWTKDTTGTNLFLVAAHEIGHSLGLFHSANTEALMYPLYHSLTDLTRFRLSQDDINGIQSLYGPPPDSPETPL

Structure (SMILES) | IC50 (MMP-9) | IC50 (MMP-3) | inhibition at 5 µM (MMP-9) | inhibition at 5 µM (MMP-3)
O=C(CC(CSc1ccc2ccccc2c1)C(=O)O)c1ccc(-c2ccc(Cl)cc2)cc1 (stereo not drawn) [Example 226, [1,1'-Biphenyl]-4-butanoic acid, 4'-chloro-α-[(2-naphthalenylthio)methyl]-γ-oxo-] | 255 nM | 720 nM | – | –
CC(C)CC(CC(=O)c1ccc(-c2ccc(C#N)cc2)cc1)C(=O)O (stereo not drawn) [Example 46, [1,1'-Biphenyl]-4-butanoic acid, 4'-cyano-α-(2-methylpropyl)-γ-oxo-] | 4000 nM | 700 nM | – | –
O=C(O)/C=C/C(=O)c1ccc(Oc2ccc(Cl)cc2)cc1 [Example 30, 2-Butenoic acid, 4-[4-(4-chlorophenoxy)penyl]-4-oxo-, (E)-, reference compound] | – | – | 25% | 8%
C=C(CC(O)c1ccc(-c2ccc(Cl)cc2)cc1)C(=O)O (stereo not drawn) [Example 38, [1,1'-Biphenyl]-4-butanoic acid, 4'-chloro-γ-hydroxy-α-methylene-, reference compound] | – | 10000 nM | 10% | –
CC(C)(C)c1ccc(SCC(CC(=O)c2ccc(-c3ccc(Cl)cc3)cc2)C(=O)O)cc1 (stereo not drawn) [Example 213, [1,1'-Biphenyl]-4-butanoic acid, 4'-chloro-α-[[(4-(1,1-dimethylethyl)phenyl]thio]methyl]-γ-oxo-] | – | 2500 nM | 41% | –
CC(=O)Nc1ccc(SCC(CC(=O)c2ccc(-c3ccc(Cl)cc3)cc2)C(=O)O)cc1 (stereo not drawn) [Example 223, [1,1'-Biphenyl]-4-butanoic acid, α-[[[4-(acetylamino)phenyl]thio]methyl]-4'-chloro-γ-oxo-] | 580 nM | 930 nM | – | –
CN(C)c1ccc(-c2ccc(C(=O)CC(CCCc3ccccc3)C(=O)O)cc2)cc1 (stereo not drawn) [Example 60, [1,1'-Biphenyl]-4-butanoic acid, 4'-(dimethylamino)-γ-oxo-α-(3-phenylpropyl)-] | 180 nM | 600 nM | – | –
CCC(CC(=O)c1ccc(-c2ccc(Cl)cc2)cc1)C(=O)O (stereo not drawn) [Example 117, [1,1'-Biphenyl]-4-butanoic acid, 4'-chloro-α-ethyl-γ-oxo-] | 3800 nM | 590 nM | – | –
CC1=C(C)C[C@@H](C(=O)c2ccc(-c3ccc(Cl)cc3)cc2)[C@H](C(=O)O)C1 (relative stereo) [Example 327, 3-Cyclohexene-1-carboxylic acid, 6-[(4'-chloro[1,1'-biphenyl]-4-yl)carbonyl]-3,4-dimethyl-, trans-] | 12000 nM | – | – | 55%
O=C(c1ccc(-c2ccc(Cl)cc2)cc1)[C@H]1CCCC[C@H]1C(=O)O (relative stereo) [Example 286, Cyclohexanecarboxylic acid, 2-[(4'-chloro[1,1'-biphenyl]-4-yl)carbonyl]-, trans-] | – | – | 0% | 19%
O=C(CC(C(=O)O)N1CCSCC1)c1ccc(-c2ccc(Cl)cc2)cc1 (stereo not drawn) [Example 259] | – | 2600 nM | 37% | –
CCCC(CC(=O)c1ccc(-c2ccc(Cl)cc2)cc1)C(=O)O (stereo not drawn) [Example 118, [1,1'-Biphenyl]-4-butanoic acid, 4'-chloro-γ-oxo-α-propyl-] | 2200 nM | 440 nM | – | –
COc1ccc(CSCC(CC(=O)c2ccc(-c3ccc(Cl)cc3)cc2)C(=O)O)cc1 (stereo not drawn) [Example 201, [1,1'-Biphenyl]-4-butanoic acid, 4'-chloro-α-[[[(4-methoxyphenyl)methyl]thio]methyl]-γ-oxo-] | 800 nM | 340 nM | – | –
O=C(O)[C@@H]1CC=CC[C@H]1C(=O)c1ccc(-c2ccc(Cl)cc2)cc1 (relative stereo) [Example 328, 3-Cyclohexene-1-carboxylic acid, 6-[(4'-chloro[1,1'-biphenyl]-4-yl)carbonyl]-, trans-] | – | – | 45% | 49%
CC(C)(CC(=O)O)CC(=O)c1ccc(-c2ccc(Cl)cc2)cc1 [Example 334, [1,1'-Biphenyl]-4-pentanoic acid, 4'-chloro-β,β-dimethyl-δ-oxo-] | 6000 nM | – | – | 42%
O=C(CC(CSc1ccc(Br)cc1)C(=O)O)c1ccc(-c2ccc(Cl)cc2)cc1 (stereo not drawn) [Example 210, [1,1'-Biphenyl]-4-butanoic acid, α-[[(4-bromophenyl)thio]methyl]-4'-chloroγ-oxo-] | 205 nM | 500 nM | – | –
O=C(O)CCC(=O)c1ccc(-c2ccc(Cl)cc2)cc1 [Example 6, [1,1'-Biphenyl]-4-butanoic acid, 4'-chloro-γ-oxo-, reference compound] | – | 2100 nM | 38% | –
CC(=O)SCC(CC(=O)O)C(=O)c1ccc(-c2ccc(Cl)cc2)cc1 (stereo not drawn) [Example 258, [1,1'-Biphenyl]-4-butanoic acid, β-[(acetylthio)methyl]-4'-chloro-γ-oxo-, reference compound] | 2100 nM | 820 nM | – | –
CC(C)(C)c1ccc(-c2ccc(C(=O)CC(CCCc3ccccc3)C(=O)O)cc2)cc1 (stereo not drawn) [Example 48, [1,1'-Biphenyl]-4-butanoic acid, 4'-(1,1-dimethylethyl)-γ-oxo-α-(3-phenylpropyl)-] | – | – | 15% | 53%
CC(=O)SCC(CC(=O)c1ccc(-c2ccc(Cl)cc2)cc1)C(=O)O (stereo not drawn) [Example 200, [1,1'-Biphenyl]-4-butanoic acid, α-[(acetylthio)methyl]-4'-chloro-γ-oxo-] | 2300 nM | 640 nM | – | –
CC(C)CC(CC(=O)c1ccc(Cl)cc1)C(=O)O (stereo not drawn) [Example 27, Benzenebutanoic acid, 4-chloro-α-(2-methylpropyl)-γ-oxo-, reference compound] | – | – | 15% | 11%

Second part, the molecule after the results:

IC50 (MMP-9) | IC50 (MMP-3) | inhibition at 5 µM (MMP-9) | inhibition at 5 µM (MMP-3) | Structure (SMILES)
200 nM | 160 nM | – | – | O=C(CC(CCCCc1ccccc1)C(=O)O)c1ccc(-c2ccc(Cl)cc2)cc1 (stereo not drawn) [Example 179, [1,1'-Biphenyl]-4-butanoic acid, 4'-chloro-γ-oxo-α-(4-phenylbutyl)-]
42 nM | 55 nM | – | – | Cc1ccccc1S[C@@H]1CC[C@H](C(=O)c2ccc(-c3ccc(Cl)cc3)cc2)[C@H]1C(=O)O (relative stereo) [Example 304, Cyclopentanecarboxylic acid, 2-[(4'-chloro[1,1'-biphenyl]-4-yl)carbonyl]-5-[(2-methylphenyl)thio]-, (1α,2β,5α)-]
82 nM | 78 nM | – | – | CCOc1ccc(-c2ccc(C(=O)CC(CCCc3ccccc3)C(=O)O)cc2)cc1 (stereo not drawn) [Example 75, [1,1'-Biphenyl]-4-butanoic acid, 4'-ethoxy-γ-oxo-α-(3-phenylpropyl)-]
820 nM | 280 nM | – | – | Cc1cccc(SCC(CC(=O)c2ccc(-c3ccc(Cl)cc3)cc2)C(=O)O)c1 (stereo not drawn) [Example 231, [1,1'-Biphenyl]-4-butanoic acid, 4'-chloro-α-[[(3-methylphenyl)thio]methyl]-γ-oxo-]
950 nM | 190 nM | – | – | CCc1ccccc1SCC(CC(=O)c1ccc(-c2ccc(Cl)cc2)cc1)C(=O)O (stereo not drawn) [Example 220, [1,1'-Biphenyl]-4-butanoic acid, 4'-chloro-α-[[(2-ethylphenyl)thio]methyl]-γ-oxo-]
1400 nM | 310 nM | – | – | O=C(O)[C@H]1[C@@H](Sc2ccc(F)cc2)CC[C@@H]1C(=O)c1ccc(-c2ccc(Cl)cc2)cc1 (relative stereo) [Example 303, Cyclopentanecarboxylic acid, 2-[(4'-chloro[1,1'-biphenyl]-4-yl)carbonyl]-5-[(4-fluorophenyl)thio]-, (1α,2β,5α)-]
550 nM | 150 nM | – | – | Cc1ccccc1S[C@H]1CC[C@H](C(=O)c2ccc(-c3ccc(Cl)cc3)cc2)[C@H]1C(=O)O (relative stereo) [Example 306, Cyclopentanecarboxylic acid, 2-[(4'-chloro[1,1'-biphenyl]-4-yl)carbonyl]-5-[(2-methylphenyl)thio]-, (1α,2β,5α)-]
– | 330 nM | 62% | – | COCCOCC(CC(=O)c1ccc(-c2ccc(Cl)cc2)cc1)C(=O)O (stereo not drawn) [Example 191, [1,1'-Biphenyl]-4-butanoic acid, 4'-chloro-=-[(2-methoxyethoxy)methyl]-γ-oxo-]
4800 nM | 339 nM | – | – | O=C(CC(CSc1ccccc1C(=O)O)C(=O)O)c1ccc(-c2ccc(Cl)cc2)cc1 (stereo not drawn) [Example 233]
– | 280 nM | 41% | – | Cc1ccc(CCCC(CC(=O)c2ccc(-c3ccc(Cl)cc3)cc2)C(=O)O)cc1 (stereo not drawn) [Example 184, [1,1'-Biphenyl]-4-butanoic acid, 4'-chloro-α[3-(4-methylphenyl)propyl]-γ-oxo-]
290 nM | 330 nM | – | – | O=C(CC(CCCCCCc1ccccc1)C(=O)O)c1ccc(-c2ccc(Cl)cc2)cc1 (stereo not drawn) [Example 181, [1,1'-Biphenyl]-4-butanoic acid, 4'-chloro-γ-oxo-α-(6-phenylhexyl)-]
550 nM | 250 nM | – | – | O=C(CC(CSc1ccccc1Cl)C(=O)O)c1ccc(-c2ccc(Cl)cc2)cc1 (stereo not drawn) [Example 230, [1,1'-Biphenyl]-4-butanoic acid, 4'-chloro-α-[[(2-chlorophenyl)thio]methyl]-γ-oxo-]
– | 180 nM | 28% | – | O=C(CC(CCc1ccccc1)C(=O)O)c1ccc(-c2ccc([N+](=O)[O-])cc2)cc1 (stereo not drawn) [Example 124, [1,1'-Biphenyl]-4-butanoic acid, 4'-nitro-γ-oxo-α-(2-phenylethyl)-]
600 nM | 220 nM | – | – | COc1ccc(-c2ccc(C(=O)CC(CCCc3ccccc3)C(=O)O)cc2)cc1 (stereo not drawn) [Example 73, [1,1'-Biphenyl]-4-butanoic acid, 4'-methoxy-γ-oxo-α-(3-phenylpropyl)-]
510 nM | 140 nM | – | – | O=C(CC(COCc1ccccc1)C(=O)O)c1ccc(-c2ccc(Cl)cc2)cc1 (stereo not drawn) [Example 192, [1,1'-Biphenyl]-4-butanoic acid, 4'-chloro-γ-oxo-α-[(phenylmethoxy)methyl]-]
